The source of these data is patent US10004701B2, “Methods and compositions for treating infection” (UNIVERSITY OF ROCHESTER, priority 2012, dated 2018).

Holding throughout (assay): AK assay 384-well format, Prestwick library screening
In one test the test system is K. pneumoniae. It counts as cell-based, Klebsiella pneumoniae. The following applies: Klebsiella pneumoniae, 3 h, 50 μM final drug concentration.
The subject of test [1] is S. aureus strain USA300-0114. It counts as cell-based, Staphylococcus aureus. The following applies: Staphylococcus aureus, USA300, 3 h, 50 μM final drug concentration.
In the next test the test system is E. cloacae. It counts as cell-based, Enterobacter cloacae. The following applies: Enterobacter cloacae, 3 h, 50 μM final drug concentration.
The subject of a further test is E. faecium. It counts as cell-based, Enterococcus faecium. To be noted: Enterococcus faecium, 3 h, 50 μM final drug concentration.
The subject of test [2] is A. baumannii strain 98-37-09. It counts as cell-based, Acinetobacter baumannii. To be noted: Acinetobacter baumannii, 983709, 3 h, 50 μM final drug concentration.
Another test relates to E. coli. It counts as cell-based, Escherichia coli. The following applies: Escherichia coli, 3 h, 50 μM final drug concentration.
A further test concerns P. aeruginosa. It counts as cell-based, Pseudomonas aeruginosa. The following applies: Pseudomonas aeruginosa, 3 h, 50 μM final drug concentration.
The mark [3] stands for this setting: planktonic K. pneumoniae, cutoff for positive-scoring molecules 3-fold increase, read-out: AK-based Prestwick Library Screening Results, K. pneumoniae (increase in extracellular AK activity).
Setting [4] is: planktonic S. aureus, cutoff for positive-scoring molecules 3-fold increase, read-out: AK-based Prestwick Library Screening Results, S. aureus (increase in extracellular AK activity).
The mark [5] stands for this setting: planktonic E. cloacae, cutoff for positive-scoring molecules 3-fold increase, read-out: AK-based Prestwick Library Screening Results, E. cloacae (increase in extracellular AK activity).
The mark [6] stands for this setting: planktonic E. faecium, cutoff for positive-scoring molecules 3-fold increase, read-out: AK-based Prestwick Library Screening Results, E. faecium (increase in extracellular AK activity).
Where [7] appears, read: planktonic A. baumannii, cutoff for positive-scoring molecules 3-fold increase, read-out: AK-based Prestwick Library Screening Results, A. baumannii (increase in extracellular AK activity).
[8] abbreviates: planktonic E. coli, cutoff for positive-scoring molecules 3-fold increase, read-out: AK-based Prestwick Library Screening Results, E. coli (increase in extracellular AK activity).
The mark [9] stands for this setting: planktonic P. aeruginosa, cutoff for positive-scoring molecules 3-fold increase, read-out: AK-based Prestwick Library Screening Results, P. aeruginosa (increase in extracellular AK activity).

Where two headings read alike, the source gives them in different places.

With `Cn1c(=O)c2c(ncn2CC(O)CO)n(C)c1=O` (stereo not shown) [Diprophylline], the fold induction at 50 µM in the test on K. pneumoniae (384-well format, cutoff for positive-scoring molecules 3-fold increase, read-out: AK-based Prestwick Library Screening Results, K. pneumoniae (increase in extracellular AK activity)) was 0.6; in test [1] (384-well format, cutoff for positive-scoring molecules 3-fold increase, read-out: AK-based Prestwick Library Screening Results, S. aureus (increase in extracellular AK activity)) it was 0.7; in the test with E. cloacae (384-well format, cutoff for positive-scoring molecules 3-fold increase, read-out: AK-based Prestwick Library Screening Results, E. cloacae (increase in extracellular AK activity)), 1.1; with E. faecium (384-well format, cutoff for positive-scoring molecules 3-fold increase, read-out: AK-based Prestwick Library Screening Results, E. faecium (increase in extracellular AK activity)), 0.9; in test [2] (384-well format, cutoff for positive-scoring molecules 3-fold increase, read-out: AK-based Prestwick Library Screening Results, A. baumannii (increase in extracellular AK activity)) it was 0.8; with E. coli (384-well format, cutoff for positive-scoring molecules 3-fold increase, read-out: AK-based Prestwick Library Screening Results, E. coli (increase in extracellular AK activity)), 1. In addition, the fold induction at 50 µM in the test with P. aeruginosa (384-well format, cutoff for positive-scoring molecules 3-fold increase, read-out: AK-based Prestwick Library Screening Results, P. aeruginosa (increase in extracellular AK activity)) is 0.7.

Regarding `COc1cc(Cc2cnc(N)nc2N)cc(OC)c1OC` [Trimethoprim], the fold induction at 50 µM in the test with K. pneumoniae (planktonic K. pneumoniae, 384-well, cutoff for positive-scoring molecules 3-fold increase, read-out: AK-based Prestwick Library Screening Results: K. pneumoniae (increase in extracellular AK activity)) was 0.8; in test [1] (planktonic S. aureus, 384-well, cutoff for positive-scoring molecules 3-fold increase, read-out: AK-based Prestwick Library Screening Results: S. aureus (increase in extracellular AK activity)) it was 1; with E. cloacae (planktonic E. cloacae, 384-well, cutoff for positive-scoring molecules 3-fold increase, read-out: AK-based Prestwick Library Screening Results: E. cloacae (increase in extracellular AK activity)), 7.2; in the test with E. faecium (planktonic E. faecium, 384-well, cutoff for positive-scoring molecules 3-fold increase, read-out: AK-based Prestwick Library Screening Results: E. faecium (increase in extracellular AK activity)), 1.1; in test [2] (planktonic A. baumannii, 384-well, cutoff for positive-scoring molecules 3-fold increase, read-out: AK-based Prestwick Library Screening Results: A. baumannii (increase in extracellular AK activity)), 3.1; in the test on E. coli (planktonic E. coli, 384-well, cutoff for positive-scoring molecules 3-fold increase, read-out: AK-based Prestwick Library Screening Results: E. coli (increase in extracellular AK activity)) it was 1.2. Further, in the test on P. aeruginosa (planktonic P. aeruginosa, 384-well, cutoff for positive-scoring molecules 3-fold increase, read-out: AK-based Prestwick Library Screening Results: P. aeruginosa (increase in extracellular AK activity)), the fold induction at 50 µM was 1.1.

On to `CN1CCN(C2=Nc3cc(Cl)ccc3Nc3ccccc32)CC1` [Clozapine], for which the fold induction at 50 µM in the test on K. pneumoniae (setting [3]) worked out at 0.8; in test [1] (setting [4]), 0.7; with E. cloacae (setting [5]), 1; in the test on E. faecium (setting [6]) it was 0.9; in test [2] (setting [7]), 0.9; with E. coli (setting [8]) it was 0.9. For the same compound, the fold induction at 50 µM in the test with P. aeruginosa (setting [9]) turned out to be 1.

Consider `C[C@]12C[C@H](O)[C@H]3[C@@H](CCC4=CC(=O)CC[C@@]43C)[C@@H]1CC[C@@H]2C(=O)CO` [Corticosterone], for which the fold induction at 50 µM came out at 0.7 in the test with K. pneumoniae (setting [3]); 0.6 in test [1] (setting [4]); 1.2 in the test with E. cloacae (setting [5]); 0.9 with E. faecium (setting [6]); 0.9 in test [2] (setting [7]); 0.9 in the test on E. coli (setting [8]). In the test with P. aeruginosa (setting [9]), the fold induction at 50 µM came to 0.8.

On to `CC1CCc2cc(F)cc3c(=O)c(C(=O)O)cn1c23` (stereo not shown) [Flumequine], for which the fold induction at 50 µM in the test on K. pneumoniae (planktonic K. pneumoniae, 384-well, […], read-out: AK-based Prestwick Library Screening Results: K. pneumoniae (increase in extracellular AK activity)) was found to be 2.2; in test [1] (planktonic S. aureus, 384-well, […], read-out: AK-based Prestwick Library Screening Results: S. aureus (increase in extracellular AK activity)) it was 2.2; with E. cloacae (planktonic E. cloacae, 384-well, […], read-out: AK-based Prestwick Library Screening Results: E. cloacae (increase in extracellular AK activity)), 24.4; with E. faecium (planktonic E. faecium, 384-well, […], read-out: AK-based Prestwick Library Screening Results: E. faecium (increase in extracellular AK activity)), 1.5; in test [2] (planktonic A. baumannii, 384-well, […], read-out: AK-based Prestwick Library Screening Results: A. baumannii (increase in extracellular AK activity)), 2.9; with E. coli (planktonic E. coli, 384-well, […], read-out: AK-based Prestwick Library Screening Results: E. coli (increase in extracellular AK activity)), 13.6. Further, the fold induction at 50 µM with P. aeruginosa (planktonic P. aeruginosa, 384-well, […], read-out: AK-based Prestwick Library Screening Results: P. aeruginosa (increase in extracellular AK activity)) came to 1.4.

In the case of `CC[C@H]1OC(=O)[C@H](C)[C@@H](O[C@H]2C[C@@](C)(OC)[C@@H](O)[C@H](C)O2)[C@H](C)[C@@H](O[C@@H]2O[C@H](C)C[C@H](N(C)C)[C@H]2O)[C@](C)(O)C[C@@H](C)[C@@H]2N[C@@H](COCCOC)O[C@H]([C@H]2C)[C@]1(C)O` [Dirithromycin], the fold induction at 50 µM in the test with K. pneumoniae (planktonic, cutoff for positive 3-fold increase, read-out: AK-based Prestwick Library Screening Results, K. pneumoniae (fold increase in extracellular AK activity)) was found to be 1.2; in test [1] (planktonic, cutoff for positive 3-fold increase, read-out: AK-based Prestwick Library Screening Results, S. aureus (fold increase in extracellular AK activity)), 2.1; in the test on E. cloacae (planktonic, cutoff for positive 3-fold increase, read-out: AK-based Prestwick Library Screening Results, E. cloacae (fold increase in extracellular AK activity)) it was 1.5; in the test with E. faecium (planktonic, cutoff for positive 3-fold increase, read-out: AK-based Prestwick Library Screening Results, E. faecium (fold increase in extracellular AK activity)) it was 1.2; in test [2] (planktonic, cutoff for positive 3-fold increase, read-out: AK-based Prestwick Library Screening Results, A. baumannii (fold increase in extracellular AK activity)) it was 1.8; with E. coli (planktonic, cutoff for positive 3-fold increase, read-out: AK-based Prestwick Library Screening Results, E. coli (fold increase in extracellular AK activity)), 1.1. Also, in the test with P. aeruginosa (planktonic, cutoff for positive 3-fold increase, read-out: AK-based Prestwick Library Screening Results, P. aeruginosa (fold increase in extracellular AK activity)), the fold induction at 50 µM was 0.9.

In the case of `C[n+]1cc2c3c(ccc2c2ccc4cc5c(cc4c21)OCO5)OCO3` [Sanguinarine], the fold induction at 50 µM with K. pneumoniae (planktonic K. pneumoniae, […], read-out: AK-based Prestwick library screening result, K. pneumoniae (fold increase in extracellular AK activity)) turned out to be 0.2; in test [1] (planktonic S. aureus, […], read-out: AK-based Prestwick library screening result, S. aureus (fold increase in extracellular AK activity)), 0.1; in the test with E. cloacae (planktonic E. cloacae, […], read-out: AK-based Prestwick library screening result, E. cloacae (fold increase in extracellular AK activity)), 0.9; with E. faecium (planktonic E. faecium, […], read-out: AK-based Prestwick library screening result, E. faecium (fold increase in extracellular AK activity)), 0.3; in test [2] (planktonic A. baumannii, […], read-out: AK-based Prestwick library screening result, A. baumannii (fold increase in extracellular AK activity)) it was 0.7; with E. coli (planktonic E. coli, […], read-out: AK-based Prestwick library screening result, E. coli (fold increase in extracellular AK activity)) it was 0.6. Also, the fold induction at 50 µM in the test with P. aeruginosa (planktonic P. aeruginosa, […], read-out: AK-based Prestwick library screening result, P. aeruginosa (fold increase in extracellular AK activity)) is 0.3.
